Experimental data from publication PMC4850295, “Using a Genetically Encoded Sensor to Identify Inhibitors of Toxoplasma gondii Ca^2+ Signaling” (The Journal of Biological Chemistry, 2016).

System: T1, GCaMP5-expressing T. gondii
T1 construct: whole extracellular parasites expressing GCaMP5 Ca2+ sensor
Parameters: species or system GCaMP5-expressing Toxoplasma gondii, extracellular; GCaMP5 fluorescence (cytosolic Ca2+) after 100 uM zaprinast in compound-pretreated extracellular parasites, background-subtracted, relative to zaprinast alone
Settings: 100 uM zaprinast stimulation; 10 min pretreatment; mean of two replicates; 0.23 h
Summary of the method: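 Read-out is GCaMP5 calcium fluorescence (ex 485/em 525 nm) taken 4 min after 100 μM zaprinast at 37 °C, following 10 min compound pretreatment at 10 μM in duplicate biological replicates. Values are basal-subtracted fold change versus zaprinast-only controls; parasites held extracellular in Ringer's solution.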

First: Nc1nonc1-c1nc2cnccc2n1C1CCCCC1 [SB-734117]
Second: Nc1nonc1-c1nc2cnccc2n1C1CC1 [SB-736302]
The “fold change in fluorescence relative to zaprinast alone” value of the first is lower: 1.214 for the first, 1.282 for the second.

First: O=C(Nc1n[nH]c2nc(-c3ccccc3)c(Cl)cc12)C1CC1 [SB-734909]
Second: O=C(Nc1n[nH]c2nc(-c3cccs3)c(Br)cc12)C1CC1 [SB-735297]
The “fold change in fluorescence relative to zaprinast alone” value of the first is lower: 1.154 for the first, 1.322 for the second.

Going from `CCn1c(-c2ccncc2)nc2cnccc21` [SB-735216] to `CCn1c(-c2ccccn2)nc2cnccc21` [SB-736398], the “fold change in fluorescence relative to zaprinast alone” value falls from 1.246 to 1.076.

Going from `O=C(Nc1n[nH]c2cc(-c3cccc(F)c3)ccc12)C1CC1` [SB-735464] to `O=C(Nc1n[nH]c2cc(-c3ccc(F)cc3)ccc12)C1CC1` [SB-735467], the “fold change in fluorescence relative to zaprinast alone” value falls from 1.069 to 0.9628.

Compared with `O=C(Nc1n[nH]c2cc(-c3cc(F)ccc3F)ccc12)C1CC1` [SB-735465], `O=C(Nc1n[nH]c2cc(-c3ccco3)ccc12)C1CC1` [SB-737447] is higher in “fold change in fluorescence relative to zaprinast alone” value: 1.125 for the first, 1.13 for the second.

Compared with `Cn1c(-c2nonc2N)nc2cnccc21` [SB-736290], `CCn1c(-c2nonc2N)nc2ccncc21` [SB-738561] is lower in “fold change in fluorescence relative to zaprinast alone” value: 1.181 for the first, 1.114 for the second.

First: CCn1c(-c2ccc[nH]c2=O)nc2cnccc21 [SB-736715]
Second: CCn1c(-c2c(N)noc2C)nc2cnccc21 [SB-737856]
The “fold change in fluorescence relative to zaprinast alone” value of the first is lower: 0.9368 for the first, 0.9935 for the second.

Compared with `CCOc1nccc2c1nc(-c1nonc1N)n2CC` [SB-737198], `CCc1nccc2c1nc(-c1nonc1N)n2CC` [SB-751148] is higher in “fold change in fluorescence relative to zaprinast alone” value: 0.8453 for the first, 1.115 for the second.

First: CCn1c(-c2nonc2N)nc2cncc(Br)c21 [SB-738004]
Second: CCn1c(-c2nonc2N)nc2cncc(C(=O)N3CC[C@H](N)C3)c21 [SB-772077-B]
The “fold change in fluorescence relative to zaprinast alone” value of the first is lower: 0.8309 for the first, 1.135 for the second.

First: O=C(Nc1n[nH]c2cc(-c3ccoc3)ccc12)C1CC1 [SB-738481]
Second: NS(=O)(=O)c1ccc(-c2ccc3c(NC(=O)C4CC4)n[nH]c3c2)cc1 [SB-738482]
The “fold change in fluorescence relative to zaprinast alone” value of the first is higher: 1.2 for the first, 1.098 for the second.

First: O=C(Nc1n[nH]c2nc(-c3ccco3)c(Br)cc12)C1CC1 [SB-739452]
Second: O=C(Nc1n[nH]c2nc(-c3ccco3)ccc12)C1CC1 [SB-743899]
The “fold change in fluorescence relative to zaprinast alone” value of the first is lower: 1.083 for the first, 1.211 for the second.

Going from `NS(=O)(=O)c1cccc(-c2ccc3c(NC(=O)C4CC4)n[nH]c3c2)c1` [SB-741905] to `O=C(Nc1n[nH]c2nc(-c3cccs3)c(Br)cc12)C1CCCC1` [SB-743341], the “fold change in fluorescence relative to zaprinast alone” value falls from 1.374 to 0.9376.

Compared with `O=C(Nc1n[nH]c2nc(-c3ccco3)c(Br)cc12)C1CCN(Cc2ccccc2)C1` (stereo not drawn) [SB-742034-AC], `O=C(Nc1n[nH]c2nc(-c3nccs3)c(Br)cc12)C1CC1` [SB-742251] is higher in “fold change in fluorescence relative to zaprinast alone” value: 0.9039 for the first, 1.325 for the second.

Going from `O=C(Nc1n[nH]c2nc(-c3nccs3)c(Br)cc12)C1CCCC1` [SB-742609] to `CCn1c(-c2nonc2N)nc2c(N3CCCC3)nccc21` [SB-744941], the “fold change in fluorescence relative to zaprinast alone” value falls from 1.102 to 0.961.

First: CCn1c(-c2nonc2N)nc2cncc(CNC3CCNCC3)c21 [SB-747651-A]
Second: CCn1c(-c2nonc2N)nc2cncc(C(=O)N3CCNCC3)c21 [SB-759335-B]
The “fold change in fluorescence relative to zaprinast alone” value of the first is higher: 1.501 for the first, 1.333 for the second.

Compared with `NCc1ccc(-n2c(-c3nonc3N)nc3cnccc32)cc1` [SB-750140], `CN(C)CCCn1c(-c2nonc2N)nc2cnccc21` [SB-751399] is lower in “fold change in fluorescence relative to zaprinast alone” value: 1.416 for the first, 1.355 for the second.

`Cn1nc(-c2ccc(NC(=O)Nc3ccc4ccccc4c3)c(F)c2)c2cnc(NCCN3CCOCC3)nc21` [SB-750250-M] was tested, and the “fold change in fluorescence relative to zaprinast alone” value was 1.757.
